The values that follow come from ChEMBL document CHEMBL4706744, “Discovery of Selective Transforming Growth Factor β Type II Receptor Inhibitors as Antifibrosis Agents” (ACS Med Chem Lett, 2021).

The first series is described as follows: Apparent permeability across apical to basolateral side in human Caco2 cells incubated for 2 hrs by LC/MS/MS analysis. In kind it is ADME, cell-based. The following applies: Caco-2, read-out: permeability. In general terms: Passage across Caco-2 layers is used to estimate intestinal permeability.
Turning to `Cn1cc(-c2nc3c(-c4ccnc(OC5CC5)c4)cnn3cc2OCCC(C)(C)O)cn1`, the Papp A→B at 2 h is 1.4 ×10⁻⁶ cm/s.

Another series is described as follows: Metabolic stability in human liver microsomes assessed as compound remaining at 1 uM incubated for 60 mins. The following applies: read-out: Stabilty. In kind it is ADME, Microsome.
In the case of `CNc1nc2c(-c3ccnc(OC)c3)cnn2cc1OC`, the remaining at 1 h, 1 µM was 63%.
On the same count and under the same terms, the result for `COc1cc(-c2cnn3cc(OC)c([C@@H]4COC(C)(C)C4)nc23)ccn1` reads 13%; that for `COc1cc(-c2cnn3cc(OC)c(-c4cnn(C)c4)nc23)ccn1`, 43%; that for `COc1cn2ncc(-c3ccnc(OC(C)(C)C)c3)c2nc1-c1cnn(C)c1`, 35%.
Regarding `Cn1cc(-c2nc3c(-c4ccnc(OC5CC5)c4)cnn3cc2OCC(C)(C)O)cn1`, the remaining at 1 h, 1 µM turned out to be 53%.
Still for that read-out and setting: with `COc1cc(-c2cnn3cc(OC)c([C@H]4COC(C)(C)C4)nc23)ccn1` the figure was 21%; with `COc1cc(-c2cnn3cc(OC)c(C)nc23)ccn1`, 44%.
On the same count and under the same terms, with `COc1cc(-c2cnn3cc(OC)c(C4CCCC4)nc23)ccn1` the figure was 32%; with `COc1cc(-c2cnn3cc(OC)c(C4CCOC4)nc23)ccn1` (centres undefined), 29%.
On the same count and under the same terms, with `Cn1cc(-c2nc3c(-c4ccnc(OC5CC5)c4)cnn3cc2OCCC(C)(C)O)cn1` the figure was 74%.
As to `COc1cn2ncc(-c3ccnc(OC4CC4)c3)c2nc1-c1cnn(C)c1`, the remaining at 1 h, 1 µM was 47%.
Same read-out and setting: with `COc1cc(-c2cnn3cc(OC)c(-c4cc(C)no4)nc23)ccn1` the figure was 31%; with `COc1cc(-c2cnn3cc(OC)c(C(C)C)nc23)ccn1`, 40%; with `COc1cn2ncc(-c3ccnc(OC(C)C)c3)c2nc1-c1cnn(C)c1`, 32%.
Still for that read-out and setting: the result for `COc1cc(-c2cnn3cc(OC)c(N(C)C)nc23)ccn1` reads 16%; that for `COc1cnc2c(-c3ccnc(OC)c3)cnn2c1`, 2%; that for `COc1cc(-c2cnn3cc(OC)c(C(C)(C)O)nc23)ccn1`, 66%.
The same measure, in the same setting: the result for `Cn1cc(-c2nc3c(-c4ccnc(OC5CC5)c4)cnn3cc2OCCCC(C)(C)O)cn1` reads 54%.

A short description of another series: Mean residence time in Sprague-Dawley rat at 0.3 mg/kg, iv measured up to 24 hrs by LC-MS/MS analysis. In kind it is ADME, organism-based. Particulars: in vivo.
`Cn1cc(-c2nc3c(-c4ccnc(OC5CC5)c4)cnn3cc2OCCC(C)(C)O)cn1`: the MRT (as a rule, a mean duration of stay, worked out from the concentration-time curve) came out at 5.5 h.

The next series can be described thus: Solubility of the compound measured after 4 hrs by LC analysis. In kind it is physicochemical.
Settings: not given
Consider `Cn1cc(-c2nc3c(-c4ccnc(OC5CC5)c4)cnn3cc2OCCC(C)(C)O)cn1`, for which the solubility entry is given as “Soluble”.

A further series in a line: Oral bioavailability in mouse at 1 mg/kg by LC/MS analysis. It is filed as ADME, organism-based. The following applies: in vivo.
As for `Cn1cc(-c2nc3c(-c4ccnc(OC5CC5)c4)cnn3cc2OCCC(C)(C)O)cn1`, the bioavailability (in general, the share of a dose that reaches the circulation, judged against a reference dose that is usually intravenous) was found to be 48%.

The next series can be described thus: Half life in mouse at 1 mg/kg, po by LC/MS analysis. In kind it is ADME, organism-based. The following applies: in vivo.
Regarding `Cn1cc(-c2nc3c(-c4ccnc(OC5CC5)c4)cnn3cc2OCCC(C)(C)O)cn1`, the half-life (usually how long it takes for the measured level to halve) is 4.6 h.

A short description of another series: Metabolic stability in rat liver microsomes assessed as compound remaining at 1 uM incubated for 60 mins. It is filed as ADME, Microsome. Particulars: read-out: Stabilty. For orientation: Microsomes from liver hold many membrane-bound enzymes, among them those of drug oxidation.
With `CNc1nc2c(-c3ccnc(OC)c3)cnn2cc1OC`, the remaining at 1 h, 1 µM worked out at 74%.
On the same count and under the same terms, the result for `COc1cc(-c2cnn3cc(OC)c([C@@H]4COC(C)(C)C4)nc23)ccn1` reads 30%; that for `COc1cc(-c2cnn3cc(OC)c(-c4cnn(C)c4)nc23)ccn1`, 56%.
The same measure, in the same setting: with `COc1cn2ncc(-c3ccnc(OC(C)(C)C)c3)c2nc1-c1cnn(C)c1` the figure was 61%; with `Cn1cc(-c2nc3c(-c4ccnc(OC5CC5)c4)cnn3cc2OCC(C)(C)O)cn1`, 81%.
For the compound `COc1cc(-c2cnn3cc(OC)c([C@H]4COC(C)(C)C4)nc23)ccn1`, the remaining at 1 h, 1 µM was found to be 30%.
Same read-out and setting: the result for `COc1cc(-c2cnn3cc(OC)c(C)nc23)ccn1` reads 13%.
Still for that read-out and setting: the result for `COc1cc(-c2cnn3cc(OC)c(C4CCCC4)nc23)ccn1` reads 7%; that for `COc1cc(-c2cnn3cc(OC)c(C4CCOC4)nc23)ccn1` (centres undefined), 34%.
On the same count and under the same terms, the result for `Cn1cc(-c2nc3c(-c4ccnc(OC5CC5)c4)cnn3cc2OCCC(C)(C)O)cn1` reads 84%; that for `COc1cn2ncc(-c3ccnc(OC4CC4)c3)c2nc1-c1cnn(C)c1`, 32%; that for `COc1cc(-c2cnn3cc(OC)c(-c4cc(C)no4)nc23)ccn1`, 62%.
On to `COc1cc(-c2cnn3cc(OC)c(C(C)C)nc23)ccn1`, for which the remaining at 1 h, 1 µM was found to be 14%.
As for `COc1cn2ncc(-c3ccnc(OC(C)C)c3)c2nc1-c1cnn(C)c1`, the remaining at 1 h, 1 µM turned out to be 50%.
On the same count and under the same terms, the result for `COc1cc(-c2cnn3cc(OC)c(N(C)C)nc23)ccn1` reads 3%.
On to `COc1cnc2c(-c3ccnc(OC)c3)cnn2c1`, for which the remaining at 1 h, 1 µM stood at 10%.
With `COc1cc(-c2cnn3cc(OC)c(C(C)(C)O)nc23)ccn1`, the remaining at 1 h, 1 µM was 92%.
Still for that read-out and setting: with `Cn1cc(-c2nc3c(-c4ccnc(OC5CC5)c4)cnn3cc2OCCCC(C)(C)O)cn1` the figure was 64%.

A further series is described as follows: Total clearance in Sprague-Dawley rat at 0.3 mg/kg, iv measured up to 24 hrs by LC-MS/MS analysis. In kind it is ADME, organism-based. The following applies: in vivo.
In the case of `Cn1cc(-c2nc3c(-c4ccnc(OC5CC5)c4)cnn3cc2OCCC(C)(C)O)cn1`, the clearance (commonly a measure of how efficiently the substance is removed, as volume per time) is 8.17 mL/min/kg.

The next series is described as follows: Volume of distribution at steady state in Sprague-Dawley rat at 0.3 mg/kg, iv measured up to 24 hrs by LC-MS/MS analysis. The following applies: in vivo, read-out: Vdss. It is filed as ADME, organism-based.
For the compound `Cn1cc(-c2nc3c(-c4ccnc(OC5CC5)c4)cnn3cc2OCCC(C)(C)O)cn1`, the Vd was found to be 2.7 L/kg.

The next series in a line: AUC in mouse at 1 mg/kg, po by LC/MS analysis. It is filed as ADME, organism-based. The arrangement: dose 1 mg/kg. Particulars: in vivo.
Take `Cn1cc(-c2nc3c(-c4ccnc(OC5CC5)c4)cnn3cc2OCCC(C)(C)O)cn1`: the exposure (AUC) (as a rule, concentration integrated over time) amounted to 2.3 µM·h.
